Measurements taken from the NIST ThermoML archive (doi:10.1016/j.jct.2009.07.020).
± gives the expanded uncertainty stated by the source.

What was measured:
[1] = 293.15 K, 101.33 kPa, Liquid; for speed of sound: Sing-around technique in a fixed-path interferometer; for mass density: Vibrating tube method
[2] = xn = mol fraction of the nth substance listed; details: 101 kPa, Liquid; for speed of sound: Sing-around technique in a fixed-path interferometer; for mass density: Vibrating tube method

SMILES: BrCCBr [1,2-dibromoethane]
- speed of sound [1]: 1007 ± 0.89 m/s
- mass density [1]: 2179.6 ± 0.74 kg/m3

SMILES: BrCCBr [1,2-dibromoethane] + CCCCCCCCCCO
- speed of sound ([2]; 293.15 K, x1 = 0.0713): 1363.1 ± 0.91 m/s
- speed of sound ([2]; 293.15 K, x1 = 0.1171): 1341.8 ± 0.91 m/s
- speed of sound ([2]; 293.15 K, x1 = 0.1704): 1317.2 ± 0.9 m/s
- speed of sound ([2]; 293.15 K, x1 = 0.2858): 1266 ± 0.88 m/s
- speed of sound ([2]; 293.15 K, x1 = 0.3911): 1218.3 ± 0.86 m/s
- speed of sound ([2]; 293.15 K, x1 = 0.51): 1167.7 ± 0.84 m/s
- speed of sound ([2]; 293.15 K, x1 = 0.543): 1153.4 ± 0.84 m/s
- speed of sound ([2]; 293.15 K, x1 = 0.5903): 1134.1 ± 0.83 m/s
- speed of sound ([2]; 293.15 K, x1 = 0.6875): 1095.3 ± 0.82 m/s
- speed of sound ([2]; 293.15 K, x1 = 0.7289): 1080 ± 0.81 m/s
- speed of sound ([2]; 293.15 K, x1 = 0.7873): 1059.7 ± 0.8 m/s
- speed of sound ([2]; 293.15 K, x1 = 0.8411): 1042.2 ± 0.8 m/s
- speed of sound ([2]; 293.15 K, x1 = 0.9006): 1025.5 ± 0.79 m/s
- speed of sound ([2]; 293.15 K, x1 = 0.9495): 1015.6 ± 0.78 m/s
- speed of sound ([2]; 293.15 K, x1 = 1): 1007 ± 0.78 m/s
- mass density ([2]; 293.15 K, x1 = 0.0713): 873.696 ± 0.17 kg/m3
- mass density ([2]; 293.15 K, x1 = 0.1171): 903.742 ± 0.18 kg/m3
- mass density ([2]; 293.15 K, x1 = 0.1704): 940.915 ± 0.18 kg/m3
- mass density ([2]; 293.15 K, x1 = 0.2858): 1030.69 ± 0.2 kg/m3
- mass density ([2]; 293.15 K, x1 = 0.3911): 1125.7 ± 0.25 kg/m3
- mass density ([2]; 293.15 K, x1 = 0.51): 1252.15 ± 0.3 kg/m3
- mass density ([2]; 293.15 K, x1 = 0.543): 1291.44 ± 0.34 kg/m3
- mass density ([2]; 293.15 K, x1 = 0.5903): 1351.8 ± 0.39 kg/m3
- mass density ([2]; 293.15 K, x1 = 0.6875): 1492.47 ± 0.45 kg/m3
- mass density ([2]; 293.15 K, x1 = 0.7289): 1560.17 ± 0.51 kg/m3
- mass density ([2]; 293.15 K, x1 = 0.7873): 1665.23 ± 0.58 kg/m3
- mass density ([2]; 293.15 K, x1 = 0.8411): 1773.36 ± 0.66 kg/m3
- mass density ([2]; 293.15 K, x1 = 0.9006): 1908.2 ± 0.75 kg/m3
- mass density ([2]; 293.15 K, x1 = 0.9495): 2033.54 ± 0.84 kg/m3
- mass density ([2]; 293.15 K, x1 = 1): 2179.6 ± 0.73 kg/m3
- speed of sound ([2]; 313.15 K, x1 = 0.0713): 1296.4 ± 0.9 m/s
- speed of sound ([2]; 313.15 K, x1 = 0.1171): 1275.4 ± 0.89 m/s
- speed of sound ([2]; 313.15 K, x1 = 0.1704): 1251.8 ± 0.88 m/s
- speed of sound ([2]; 313.15 K, x1 = 0.2858): 1202.9 ± 0.86 m/s
- speed of sound ([2]; 313.15 K, x1 = 0.3911): 1157.2 ± 0.84 m/s
- speed of sound ([2]; 313.15 K, x1 = 0.51): 1108.9 ± 0.83 m/s
- speed of sound ([2]; 313.15 K, x1 = 0.543): 1095 ± 0.82 m/s
- speed of sound ([2]; 313.15 K, x1 = 0.5903): 1076.8 ± 0.82 m/s
- speed of sound ([2]; 313.15 K, x1 = 0.6875): 1040.5 ± 0.8 m/s
- speed of sound ([2]; 313.15 K, x1 = 0.7289): 1025.9 ± 0.79 m/s
- speed of sound ([2]; 313.15 K, x1 = 0.7873): 1006.6 ± 0.79 m/s
- speed of sound ([2]; 313.15 K, x1 = 0.8411): 990.48 ± 0.78 m/s
- speed of sound ([2]; 313.15 K, x1 = 0.9006): 975.34 ± 0.77 m/s
- speed of sound ([2]; 313.15 K, x1 = 0.9495): 965.65 ± 0.77 m/s
- speed of sound ([2]; 313.15 K, x1 = 1): 955.97 ± 0.77 m/s
- mass density ([2]; 313.15 K, x1 = 0.0713): 859.289 ± 0.18 kg/m3
- mass density ([2]; 313.15 K, x1 = 0.1171): 888.874 ± 0.18 kg/m3
- mass density ([2]; 313.15 K, x1 = 0.1704): 925.398 ± 0.18 kg/m3
- mass density ([2]; 313.15 K, x1 = 0.2858): 1013.6 ± 0.19 kg/m3
- mass density ([2]; 313.15 K, x1 = 0.3911): 1106.72 ± 0.24 kg/m3
- mass density ([2]; 313.15 K, x1 = 0.51): 1230.3 ± 0.29 kg/m3
- mass density ([2]; 313.15 K, x1 = 0.543): 1268.7 ± 0.33 kg/m3
- mass density ([2]; 313.15 K, x1 = 0.5903): 1327.54 ± 0.37 kg/m3
- mass density ([2]; 313.15 K, x1 = 0.6875): 1464.54 ± 0.43 kg/m3
- mass density ([2]; 313.15 K, x1 = 0.7289): 1530.45 ± 0.49 kg/m3
- mass density ([2]; 313.15 K, x1 = 0.7873): 1632.9 ± 0.56 kg/m3
- mass density ([2]; 313.15 K, x1 = 0.8411): 1738.48 ± 0.63 kg/m3
- mass density ([2]; 313.15 K, x1 = 0.9006): 1870.5 ± 0.72 kg/m3
- mass density ([2]; 313.15 K, x1 = 0.9495): 1993.5 ± 0.82 kg/m3
- mass density ([2]; 313.15 K, x1 = 1): 2137.7 ± 0.71 kg/m3

SMILES: ClCCCl [1,2-dichloroethane]
- speed of sound [1]: 1212.8 ± 0.94 m/s
- mass density [1]: 1252.74 ± 0.22 kg/m3

SMILES: ClCCCl [1,2-dichloroethane] + CCCCCCCCCCO
- speed of sound ([2]; 293.15 K, x1 = 0.0692): 1382.8 ± 0.92 m/s
- speed of sound ([2]; 293.15 K, x1 = 0.1136): 1373.9 ± 0.92 m/s
- speed of sound ([2]; 293.15 K, x1 = 0.2034): 1355.3 ± 0.91 m/s
- speed of sound ([2]; 293.15 K, x1 = 0.2938): 1335.6 ± 0.9 m/s
- speed of sound ([2]; 293.15 K, x1 = 0.3645): 1319.7 ± 0.9 m/s
- speed of sound ([2]; 293.15 K, x1 = 0.507): 1287.5 ± 0.89 m/s
- speed of sound ([2]; 293.15 K, x1 = 0.6043): 1265.4 ± 0.89 m/s
- speed of sound ([2]; 293.15 K, x1 = 0.699): 1244.6 ± 0.88 m/s
- speed of sound ([2]; 293.15 K, x1 = 0.7455): 1235.1 ± 0.88 m/s
- speed of sound ([2]; 293.15 K, x1 = 0.7816): 1228.3 ± 0.88 m/s
- speed of sound ([2]; 293.15 K, x1 = 0.8142): 1222.5 ± 0.88 m/s
- speed of sound ([2]; 293.15 K, x1 = 0.8429): 1218.1 ± 0.88 m/s
- speed of sound ([2]; 293.15 K, x1 = 0.9034): 1211.6 ± 0.88 m/s
- speed of sound ([2]; 293.15 K, x1 = 0.9579): 1210.4 ± 0.88 m/s
- speed of sound ([2]; 293.15 K, x1 = 1): 1212.8 ± 0.89 m/s
- mass density ([2]; 293.15 K, x1 = 0.0692): 841.579 ± 0.14 kg/m3
- mass density ([2]; 293.15 K, x1 = 0.1136): 849.567 ± 0.14 kg/m3
- mass density ([2]; 293.15 K, x1 = 0.2034): 867.401 ± 0.13 kg/m3
- mass density ([2]; 293.15 K, x1 = 0.2938): 887.762 ± 0.13 kg/m3
- mass density ([2]; 293.15 K, x1 = 0.3645): 905.827 ± 0.13 kg/m3
- mass density ([2]; 293.15 K, x1 = 0.507): 949.509 ± 0.12 kg/m3
- mass density ([2]; 293.15 K, x1 = 0.6043): 986.214 ± 0.13 kg/m3
- mass density ([2]; 293.15 K, x1 = 0.699): 1029.23 ± 0.14 kg/m3
- mass density ([2]; 293.15 K, x1 = 0.7455): 1053.66 ± 0.16 kg/m3
- mass density ([2]; 293.15 K, x1 = 0.7816): 1074.54 ± 0.17 kg/m3
- mass density ([2]; 293.15 K, x1 = 0.8142): 1094.99 ± 0.19 kg/m3
- mass density ([2]; 293.15 K, x1 = 0.8429): 1114.4 ± 0.21 kg/m3
- mass density ([2]; 293.15 K, x1 = 0.9034): 1160.56 ± 0.24 kg/m3
- mass density ([2]; 293.15 K, x1 = 0.9579): 1209.39 ± 0.27 kg/m3
- mass density ([2]; 293.15 K, x1 = 1): 1252.74 ± 0.22 kg/m3
- speed of sound ([2]; 313.15 K, x1 = 0.0692): 1314.9 ± 0.9 m/s
- speed of sound ([2]; 313.15 K, x1 = 0.1136): 1305.7 ± 0.9 m/s
- speed of sound ([2]; 313.15 K, x1 = 0.2034): 1287.4 ± 0.89 m/s
- speed of sound ([2]; 313.15 K, x1 = 0.2938): 1267.8 ± 0.89 m/s
- speed of sound ([2]; 313.15 K, x1 = 0.3645): 1251.3 ± 0.88 m/s
- speed of sound ([2]; 313.15 K, x1 = 0.507): 1217.8 ± 0.88 m/s
- speed of sound ([2]; 313.15 K, x1 = 0.6043): 1195.1 ± 0.87 m/s
- speed of sound ([2]; 313.15 K, x1 = 0.699): 1174.3 ± 0.86 m/s
- speed of sound ([2]; 313.15 K, x1 = 0.7455): 1164.8 ± 0.86 m/s
- speed of sound ([2]; 313.15 K, x1 = 0.7816): 1157.8 ± 0.86 m/s
- speed of sound ([2]; 313.15 K, x1 = 0.8142): 1151.9 ± 0.86 m/s
- speed of sound ([2]; 313.15 K, x1 = 0.8429): 1147.4 ± 0.86 m/s
- speed of sound ([2]; 313.15 K, x1 = 0.9034): 1140.5 ± 0.85 m/s
- speed of sound ([2]; 313.15 K, x1 = 0.9579): 1136.8 ± 0.86 m/s
- speed of sound ([2]; 313.15 K, x1 = 1): 1136 ± 0.87 m/s
- mass density ([2]; 313.15 K, x1 = 0.0692): 827.391 ± 0.14 kg/m3
- mass density ([2]; 313.15 K, x1 = 0.1136): 835.077 ± 0.14 kg/m3
- mass density ([2]; 313.15 K, x1 = 0.2034): 852.221 ± 0.14 kg/m3
- mass density ([2]; 313.15 K, x1 = 0.2938): 871.824 ± 0.13 kg/m3
- mass density ([2]; 313.15 K, x1 = 0.3645): 889.228 ± 0.13 kg/m3
- mass density ([2]; 313.15 K, x1 = 0.507): 931.327 ± 0.12 kg/m3
- mass density ([2]; 313.15 K, x1 = 0.6043): 966.695 ± 0.13 kg/m3
- mass density ([2]; 313.15 K, x1 = 0.699): 1008.07 ± 0.13 kg/m3
- mass density ([2]; 313.15 K, x1 = 0.7455): 1031.55 ± 0.15 kg/m3
- mass density ([2]; 313.15 K, x1 = 0.7816): 1051.57 ± 0.17 kg/m3
- mass density ([2]; 313.15 K, x1 = 0.8142): 1071.24 ± 0.18 kg/m3
- mass density ([2]; 313.15 K, x1 = 0.8429): 1089.86 ± 0.2 kg/m3
- mass density ([2]; 313.15 K, x1 = 0.9034): 1134.21 ± 0.22 kg/m3
- mass density ([2]; 313.15 K, x1 = 0.9579): 1181.34 ± 0.26 kg/m3
- mass density ([2]; 313.15 K, x1 = 1): 1223.38 ± 0.2 kg/m3
